Experimental data taken from ChEMBL document CHEMBL3808354, “Synthesis and biological evaluation of oxindole linked indolyl-pyrimidine derivatives as potential cytotoxic agents” (Bioorg Med Chem Lett, 2016).
Activity calls are given as the source filed them. No cut-off for these calls is given here.

Tests used:
[1] = Cytotoxicity against human U87MG cells assessed as decrease in cell viability after 48 hrs by MTT assay; format: functional, cell-based, U-87MG ATCC; settings: U-87 MG
[2] = tested on: MCF7; test: Cytotoxicity against human MCF7 cells assessed as decrease in cell viability after 48 hrs by MTT assay; format: functional, cell-based; settings: MCF7, 48 h
[3] = Cytotoxicity against human PA1 cells assessed as decrease in cell viability after 48 hrs by MTT assay; format: functional, cell-based; settings: PA-1, 48 h
[4] = Cytotoxicity against human RWPE1 cells assessed as decrease in cell viability after 48 hrs by MTT assay; format: cell-based; settings: RWPE-1, 48 h
[5] = Selectivity ratio of IC50 for human RWPE1 cells to IC50 for human LNCAP cells; format: ADME, cell-based; settings: RWPE1 cells and LNCaP cells, read-out: Ratio IC50
[6] = tested on: LNCaP; test: Cytotoxicity against human LNCAP cells assessed as decrease in cell viability after 48 hrs by MTT assay; format: functional, cell-based
[7] = Cell cycle arrest in human PA1 cells assessed as accumulation at G2/M phase after 24 hrs by propidium iodide staining based flow cytometry; format: functional; settings: PA-1
[8] = tested on: PA-1; test: Induction of apoptosis in human PA1 cells after 24 hrs by annexin V-FITC/propidium iodide staining based flow cytometry; format: functional, cell-based
[9] = tested on: PA-1; test: Induction of morphological changes in human PA1 cells assessed as cell wall deformation at 1 to 2.5 uM after 24 hrs by inverted phase contrast microscopy; format: functional, cell-based
[10] = Cell cycle arrest in human PA1 cells assessed as accumulation at G0/G1 phase at 2.5 uM after 24 hrs by propidium iodide staining based flow cytometry (reference value: 73.23%); format: functional; settings: PA-1
[11] = tested on: PA-1; test: Induction of apoptosis in human PA1 cells assessed as early apoptotic cells at 1 uM after 24 hrs by annexin V-FITC/propidium iodide staining based flow cytometry (reference value: 1.65%); format: functional
[12] = tested on: PA-1; test: Induction of apoptosis in human PA1 cells assessed as viable cells at 2.5 uM after 24 hrs by annexin V-FITC/propidium iodide staining based flow cytometry (reference value: 97.01%); format: functional; settings: PA-1, 24 h, read-out: Activity
[13] = tested on: PA-1; test: Antiproliferative activity against human PA1 cells assessed as reduction in viable cells at 1 to 2.5 uM after 24 hrs by inverted phase contrast microscopy; format: functional, cell-based
[14] = Cell cycle arrest in human PA1 cells assessed as accumulation at G2/M phase at 2.5 uM after 24 hrs by propidium iodide staining based flow cytometry (reference value: 15.72%); format: functional; settings: PA-1
[15] = tested on: PA-1; test: Induction of cell death in human PA1 cells assessed as apoptotic body formation at 1 to 2.5 uM after 24 hrs by acridine orange/ethidium bromide staining based fluorescence microscopy; format: functional
[16] = tested on: PA-1; test: Induction of cell death in human PA1 cells assessed as membrane blebbing at 1 to 2.5 uM after 24 hrs by acridine orange/ethidium bromide staining based fluorescence microscopy; format: functional
[17] = tested on: PA-1; test: Induction of morphological changes in human PA1 cells assessed as cell shrinking at 1 to 2.5 uM after 24 hrs by inverted phase contrast microscopy; format: functional, cell-based
[18] = tested on: PA-1; test: Induction of apoptosis in human PA1 cells assessed as late apoptotic cells at 1 uM after 24 hrs by annexin V-FITC/propidium iodide staining based flow cytometry (reference value: 1.24%); format: functional
[19] = tested on: PA-1; test: Induction of apoptosis in human PA1 cells assessed as necrotic cells at 2.5 uM after 24 hrs by annexin V-FITC/propidium iodide staining based flow cytometry (reference value: 0.10%); format: functional
[20] = tested on: PA-1; test: Induction of apoptosis in human PA1 cells assessed as early apoptotic cells at 2.5 uM after 24 hrs by annexin V-FITC/propidium iodide staining based flow cytometry (reference value: 1.65%); format: functional
[21] = tested on: PA-1; test: Induction of apoptosis in human PA1 cells assessed as viable cells at 1 uM after 24 hrs by annexin V-FITC/propidium iodide staining based flow cytometry (reference value: 97.01%); format: functional; settings: PA-1, 24 h, read-out: Activity
[22] = tested on: PA-1; test: Induction of apoptosis in human PA1 cells assessed as necrotic cells at 1 uM after 24 hrs by annexin V-FITC/propidium iodide staining based flow cytometry (reference value: 0.10%); format: functional
[23] = tested on: PA-1; test: Induction of cell death in human PA1 cells assessed as chromatin condensation at 1 to 2.5 uM after 24 hrs by acridine orange/ethidium bromide staining based fluorescence microscopy; format: functional
[24] = tested on: PA-1; test: Induction of cell death in human PA1 cells assessed as cell shrinking at 1 to 2.5 uM after 24 hrs by acridine orange/ethidium bromide staining based fluorescence microscopy; format: functional
[25] = Cell cycle arrest in human PA1 cells assessed as accumulation at G0/G1 phase at 1 uM after 24 hrs by propidium iodide staining based flow cytometry (reference value: 73.23%); format: functional; settings: PA-1
[26] = tested on: PA-1; test: Induction of apoptosis in human PA1 cells assessed as late apoptotic cells at 2.5 uM after 24 hrs by annexin V-FITC/propidium iodide staining based flow cytometry (reference value: 1.24%); format: functional
[27] = Cell cycle arrest in human PA1 cells assessed as accumulation at S phase at 2.5 uM after 24 hrs by propidium iodide staining based flow cytometry (reference value: 10.25%); format: functional; settings: PA-1
[28] = Cell cycle arrest in human PA1 cells assessed as accumulation at G2/M phase at 1 uM after 24 hrs by propidium iodide staining based flow cytometry (reference value: 15.72%); format: functional; settings: PA-1
[29] = Cell cycle arrest in human PA1 cells assessed as accumulation at S phase at 1 uM after 24 hrs by propidium iodide staining based flow cytometry (reference value: 10.25%); format: functional; settings: PA-1

Cn1cc(/C=C2/C(=O)Nc3ccccc32)c2cc(Nc3nccc(-c4ccc(F)cc4)n3)ccc21
IC50 [1]: 16.4 µM | IC50 [2]: 48.1 µM | IC50 [3]: 31.8 µM | IC50 [4]: 168 µM | selectivity ratio [5]: 10.3 | IC50 [6]: 16.3 µM

Cn1cc(/C=C2/C(=O)Nc3ccccc32)c2cc(Nc3nccc(-c4ccc(C(F)(F)F)cc4)n3)ccc21
IC50 [1]: 26 µM | IC50 [2]: 65.2 µM | IC50 [3]: 63.9 µM | IC50 [6]: > 100 µM

O=c1[nH]cc(F)c(=O)[nH]1 [FLUOROURACIL]
IC50 [1]: 15.5 µM | IC50 [2]: 32.3 µM | IC50 [3]: 8.51 µM | IC50 [6]: 47.2 µM

Cn1cc(/C=C2/C(=O)Nc3ccccc32)c2cc(Nc3nccc(-c4ccc(O)cc4)n3)ccc21
IC50 [1]: 13.2 µM | IC50 [2]: 39.6 µM | IC50 [3]: 9.27 µM | IC50 [4]: 58.4 µM | IC50 [6]: 10.8 µM

COc1ccc(-c2ccnc(Nc3ccc4c(c3)c(/C=C3/C(=O)Nc5ccccc53)cn4C)n2)cc1
IC50 [1]: > 100 µM | IC50 [2]: > 100 µM | IC50 [3]: > 100 µM | IC50 [6]: > 100 µM

CCN(CC)CCNC(=O)c1c(C)[nH]c(/C=C2\C(=O)Nc3ccc(F)cc32)c1C [SUNITINIB]
IC50 [1]: 59.8 µM | IC50 [2]: 23.8 µM | IC50 [3]: 7.97 µM | IC50 [4]: 23 µM | IC50 [6]: 12.6 µM

Cn1cc(/C=C2/C(=O)Nc3ccccc32)c2cc(Nc3nccc(-c4cccnc4)n3)ccc21
IC50 [1]: 14.8 µM | IC50 [2]: 46.6 µM | IC50 [3]: 18.1 µM | IC50 [4]: 69.8 µM | IC50 [6]: 14.2 µM

Cn1cc(/C=C2/C(=O)Nc3ccccc32)c2cc(Nc3nccc(-c4cccs4)n3)ccc21
IC50 [1]: 7.18 µM | IC50 [2]: 30.8 µM | IC50 [3]: 7.94 µM | IC50 [4]: 64.9 µM | IC50 [6]: 10.3 µM

Cn1cc(/C=C2/C(=O)Nc3ccccc32)c2cc(Nc3nccc(-c4ccc(Cl)cc4)n3)ccc21
Activity [7]: Dose-dependent effect | Activity [8]: Dose-dependent effect | IC50 [1]: 5.82 µM | Activity [9]: Active | Activity [10]: 57.1% | IC50 [2]: 23.5 µM | IC50 [3]: 2.43 µM | Activity [11]: 16.68% | viability at 2.5 µM [12]: 51.8% | Activity [13]: Active | Activity [14]: 31.1% | Activity [15]: Active | Activity [16]: Active | Activity [17]: Active | Activity [18]: 7.42% | Activity [19]: 3.03% | Activity [20]: 25.18% | IC50 [4]: 41.1 µM | viability at 1 µM [21]: 75.5% | Activity [22]: 0.4% | Activity [23]: Active | Activity [24]: Active | Activity [25]: 67.8% | Activity [26]: 20.01% | IC50 [6]: 6.59 µM | Activity [27]: 10.8% | Activity [28]: 17.6% | Activity [29]: 13.6%

Cn1cc(/C=C2/C(=O)Nc3ccccc32)c2cc(Nc3nccc(-c4ccc(Cl)cc4Cl)n3)ccc21
IC50 [1]: 36.8 µM | IC50 [2]: > 100 µM | IC50 [3]: > 100 µM | IC50 [6]: > 100 µM

Cn1cc(/C=C2/C(=O)Nc3ccccc32)c2cc(Nc3nccc(-c4ccccc4)n3)ccc21
IC50 [1]: 14.1 µM | IC50 [2]: 42.9 µM | IC50 [3]: 17.3 µM | IC50 [4]: 95.6 µM | IC50 [6]: 13.4 µM

Cc1ccc(-c2ccnc(Nc3ccc4c(c3)c(/C=C3/C(=O)Nc5ccccc53)cn4C)n2)cc1
IC50 [1]: > 100 µM | IC50 [2]: > 100 µM | IC50 [3]: > 100 µM | IC50 [6]: > 100 µM
